According to ChEMBL document CHEMBL1156502, “Stabilized immune modulatory RNA compounds as agonists of Toll-like receptors 7 and 8” (Proc Natl Acad Sci U S A, 2007):
Activity calls are given as the source filed them. The rule behind the calls is not given here.

How the values were obtained:
PBMC [1] = test: Induction of IL12 secretion in human PBMC after 24 hrs by Luminex Multiplex assay; type: functional, cell-based
PBMC [2] = test: Induction of IFNalpha secretion in human PBMC after 24 hrs by Luminex Multiplex assay; type: functional, cell-based
PBMC [3] = test: Induction of IFN-gamma secretion in human PBMC after 24 hrs by Luminex Multiplex assay; type: functional, cell-based
Cynomolgus monkey [4] = test: Induction of immune response in cynomolgus monkey assessed as increase in number of peripheral blood neutrophils at 5 mg/kg, sc within 24 hrs; type: functional, organism-based; parameters: dose 5 mg/kg; settings: Macaca fascicularis
Cynomolgus monkey [5] = test: Induction of immune response in cynomolgus monkey assessed as increase in number of peripheral blood monocytes at 5 mg/kg, sc within 24 hrs; type: functional, organism-based; parameters: dose 5 mg/kg; settings: Macaca fascicularis
Cynomolgus monkey [6] = test: Increase in CD69 expression on CD3+ lymphocytes in cynomolgus monkey at 5 mg/kg, sc after 24 hrs by flow cytometry relative to control; type: functional, organism-based; parameters: dose 5 mg/kg; settings: Macaca fascicularis
Cynomolgus monkey [7] = test: Increase in CD69 expression on CD16+ NK cells in cynomolgus monkey at 5 mg/kg, sc after 24 hrs by flow cytometry relative to control; type: functional, organism-based; parameters: dose 5 mg/kg; settings: Macaca fascicularis
Cynomolgus monkey [8] = test: Increase in CD69 expression on CD14+ monocytes in cynomolgus monkey at 5 mg/kg, sc after 24 hrs by flow cytometry relative to control; type: functional, organism-based; parameters: dose 5 mg/kg; settings: Macaca fascicularis
Cynomolgus monkey [9] = test: Elevation of IFNalpha in cynomolgus monkey plasma at 5 mg/kg, sc after 24 hrs; type: functional, organism-based; parameters: dose 5 mg/kg; settings: Macaca fascicularis
Cynomolgus monkey [10] = test: Elevation of IP10 in cynomolgus monkey plasma at 5 mg/kg, sc after 24 hrs; type: functional, organism-based; parameters: dose 5 mg/kg; settings: Macaca fascicularis
[11] = Stability in 1% human serum assessed as full length product after 10 mins; type: ADME, cell-free; settings: read-out: Stability
[12] = target: T1, Toll-like receptor 8 (Homo sapiens) (UniProt Q9NR97); test: Activation of human TLR8 expressed in HEK293 cells assessed as increase in NF-kappaB activation at 100 ug/ml by SEAP assay; type: cell-based
T1 sequence (whole entry): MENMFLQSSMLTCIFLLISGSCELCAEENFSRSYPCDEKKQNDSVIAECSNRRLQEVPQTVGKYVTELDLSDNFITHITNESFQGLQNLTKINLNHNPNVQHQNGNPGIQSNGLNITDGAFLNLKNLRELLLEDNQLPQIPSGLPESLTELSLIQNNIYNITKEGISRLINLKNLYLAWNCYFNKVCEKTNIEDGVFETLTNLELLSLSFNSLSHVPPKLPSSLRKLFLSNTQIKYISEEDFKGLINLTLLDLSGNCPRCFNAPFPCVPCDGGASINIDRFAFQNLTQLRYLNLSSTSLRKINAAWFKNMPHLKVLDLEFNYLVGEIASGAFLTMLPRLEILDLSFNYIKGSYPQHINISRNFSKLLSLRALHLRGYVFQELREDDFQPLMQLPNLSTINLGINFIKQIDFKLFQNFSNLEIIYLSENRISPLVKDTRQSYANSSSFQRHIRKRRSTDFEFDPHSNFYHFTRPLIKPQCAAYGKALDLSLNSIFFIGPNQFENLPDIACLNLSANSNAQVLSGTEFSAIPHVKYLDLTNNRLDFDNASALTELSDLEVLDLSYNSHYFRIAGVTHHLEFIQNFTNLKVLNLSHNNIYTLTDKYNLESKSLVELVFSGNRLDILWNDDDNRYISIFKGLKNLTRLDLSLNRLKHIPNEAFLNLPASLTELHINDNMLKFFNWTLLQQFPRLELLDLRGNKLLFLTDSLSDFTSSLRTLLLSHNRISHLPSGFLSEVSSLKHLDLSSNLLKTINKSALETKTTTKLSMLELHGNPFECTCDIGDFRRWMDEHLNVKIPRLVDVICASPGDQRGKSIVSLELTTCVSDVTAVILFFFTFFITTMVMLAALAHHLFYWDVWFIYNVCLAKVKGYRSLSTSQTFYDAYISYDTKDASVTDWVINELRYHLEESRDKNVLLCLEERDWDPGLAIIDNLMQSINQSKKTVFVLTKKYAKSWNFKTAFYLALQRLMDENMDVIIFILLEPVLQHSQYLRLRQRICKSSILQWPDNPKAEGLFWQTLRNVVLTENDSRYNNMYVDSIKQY

[13] = target: T2, Toll-like receptor 7 (Homo sapiens) (UniProt Q9NYK1); test: Activation of human TLR7 expressed in HEK293 cells assessed as increase in NF-kappaB activation at 100 ug/ml by SEAP assay; type: cell-based
T2 sequence (whole entry): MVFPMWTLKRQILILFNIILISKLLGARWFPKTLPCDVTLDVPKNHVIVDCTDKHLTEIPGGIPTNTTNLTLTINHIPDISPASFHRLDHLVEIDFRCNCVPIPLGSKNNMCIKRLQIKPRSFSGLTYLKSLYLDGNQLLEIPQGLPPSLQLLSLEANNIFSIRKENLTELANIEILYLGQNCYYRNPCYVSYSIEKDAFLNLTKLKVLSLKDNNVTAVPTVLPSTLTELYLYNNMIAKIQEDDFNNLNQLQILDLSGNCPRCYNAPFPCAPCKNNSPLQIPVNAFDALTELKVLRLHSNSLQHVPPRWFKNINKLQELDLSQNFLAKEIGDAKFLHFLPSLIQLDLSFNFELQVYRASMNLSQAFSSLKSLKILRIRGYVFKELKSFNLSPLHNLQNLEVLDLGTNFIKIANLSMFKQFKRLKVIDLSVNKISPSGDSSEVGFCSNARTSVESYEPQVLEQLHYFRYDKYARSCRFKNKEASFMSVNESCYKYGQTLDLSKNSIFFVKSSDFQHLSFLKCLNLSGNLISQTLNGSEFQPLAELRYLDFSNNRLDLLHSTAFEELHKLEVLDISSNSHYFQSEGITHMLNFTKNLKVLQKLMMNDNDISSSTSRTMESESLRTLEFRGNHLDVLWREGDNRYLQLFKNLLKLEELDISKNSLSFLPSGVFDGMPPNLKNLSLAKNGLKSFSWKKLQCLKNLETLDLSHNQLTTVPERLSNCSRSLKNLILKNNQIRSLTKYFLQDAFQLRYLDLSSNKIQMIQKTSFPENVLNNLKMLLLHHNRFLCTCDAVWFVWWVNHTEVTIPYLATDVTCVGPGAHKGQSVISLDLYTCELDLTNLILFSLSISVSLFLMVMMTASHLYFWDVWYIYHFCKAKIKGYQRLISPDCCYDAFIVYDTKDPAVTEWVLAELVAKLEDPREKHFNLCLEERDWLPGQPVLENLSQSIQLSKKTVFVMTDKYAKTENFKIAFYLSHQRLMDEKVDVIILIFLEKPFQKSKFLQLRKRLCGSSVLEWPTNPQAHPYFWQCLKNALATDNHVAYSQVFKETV

PBMC [14] = test: Induction of IL1-beta secretion in human PBMC after 24 hrs by Luminex Multiplex assay; type: functional, cell-based
PBMC [15] = test: Induction of IL2R secretion in human PBMC after 24 hrs by Luminex Multiplex assay; type: functional, cell-based
PBMC [16] = test: Induction of IL10 secretion in human PBMC after 24 hrs by Luminex Multiplex assay; type: functional, cell-based
Mus musculus [17] = test: Induction of IL12 secretion in sc dosed C57BL/6 mouse serum after 2 hrs by ELISA; type: functional, organism-based
Mus musculus [18] = test: Induction of cytokine secretion in C57BL/6 mouse plasma at 100 mg/kg, sc by Luminex Multiplex assay; type: functional, organism-based; parameters: dose 100 mg/kg
Mus musculus [19] = test: Induction of chemokine secretion in C57BL/6 mouse plasma at 100 mg/kg, sc by Luminex Multiplex assay; type: functional, organism-based; parameters: dose 100 mg/kg

Compound	Activity (PBMC [1])	Activity (PBMC [2])	Activity (PBMC [3])	Activity (Cynomolgus monkey [4])	Activity (Cynomolgus monkey [5])	Activity (Cynomolgus monkey [6])	Activity (Cynomolgus monkey [7])	Activity (Cynomolgus monkey [8])	Activity (Cynomolgus monkey [9])	Activity (Cynomolgus monkey [10])	remaining at 10 min [11]	Activity [12]	Activity [13]	Activity (PBMC [14])	Activity (PBMC [15])	Activity (PBMC [16])	Activity (Mus musculus [17])	Activity (Mus musculus [18])	Activity (Mus musculus [19])
Nc1ccn([C@@H]2O[C@H](COP(O)(=S)O[C@H]3[C@@H](O)[C@H](n4cnc5c(=O)[nH]c(N)nc54)O[C@@H]3COP(O)(=S)O[C@H]3[C@@H](O)[C@H](n4ccc(=O)[nH]c4=O)O[C@@H]3COCCCO)[C@@H](OP(O)(=S)OC[C@H]3O[C@@H](n4ccc(=O)[nH]c4=O)[C@H](O)[C@@H]3OP(O)(=S)OC[C@H]3O[C@@H](n4cnc5c(=O)[nH]c(N)nc54)[C@H](O)[C@@H]3OP(O)(=S)OC[C@H]3O[C@@H](n4ccc(N)nc4=O)[C@H](O)[C@@H]3OP(O)(=S)OC[C@H]3O[C@@H](n4ccc(=O)[nH]c4=O)[C@H](O)[C@@H]3OP(O)(=S)OC[C@H]3O[C@@H](n4ccc(=O)[nH]c4=O)[C@H](O)[C@@H]3OP(O)(=S)OC[C@H]3O[C@@H](n4cnc5c(=O)[nH]c(N)nc54)[C@H](O)[C@@H]3OP(O)(=S)OC[C@H]3O[C@@H](n4ccc(=O)[nH]c4=O)[C@H](O)[C@@H]3OP(O)(=S)OC[C@H]3O[C@@H](n4cnc5c(=O)[nH]c(N)nc54)[C@H](O)[C@@H]3OP(O)(=S)OCC(O)COP(O)(=S)O[C@H]3[C@@H](O)[C@H](n4cnc5c(=O)[nH]c(N)nc54)O[C@@H]3COP(O)(=S)O[C@H]3[C@@H](O)[C@H](n4ccc(=O)[nH]c4=O)O[C@@H]3COP(O)(=S)O[C@H]3[C@@H](O)[C@H](n4cnc5c(=O)[nH]c(N)nc54)O[C@@H]3COP(O)(=S)O[C@H]3[C@@H](O)[C@H](n4ccc(=O)[nH]c4=O)O[C@@H]3COP(O)(=S)O[C@H]3[C@@H](O)[C@H](n4ccc(=O)[nH]c4=O)O[C@@H]3COP(O)(=S)O[C@H]3[C@@H](O)[C@H](n4ccc(N)nc4=O)O[C@@H]3COP(O)(=S)O[C@H]3[C@@H](O)[C@H](n4cnc5c(=O)[nH]c(N)nc54)O[C@@H]3COP(O)(=S)O[C@H]3[C@@H](O)[C@H](n4ccc(=O)[nH]c4=O)O[C@@H]3COP(O)(=S)O[C@H]3[C@@H](O)[C@H](n4ccc(N)nc4=O)O[C@@H]3COP(O)(=S)O[C@H]3[C@@H](O)[C@H](n4cnc5c(=O)[nH]c(N)nc54)O[C@@H]3COP(O)(=S)O[C@H]3[C@@H](O)[C@H](n4ccc(=O)[nH]c4=O)O[C@@H]3COCCCO)[C@H]2O)c(=O)n1 (stereo partly drawn)	Dose-dependent effect	Dose-dependent effect	Dose-dependent effect	Active	Active	Active	Active	Active	Active	Active	78%	Active	inactive	Dose-dependent effect	Dose-dependent effect	Dose-dependent effect	–	–	–
Nc1ccn([C@@H]2O[C@H](COP(O)(=S)O[C@H]3[C@@H](O)[C@H](n4cnc5c(=O)[nH]c(N)nc54)O[C@@H]3COP(O)(=S)O[C@H]3[C@@H](O)[C@H](n4ccc(=O)[nH]c4=O)O[C@@H]3CO)[C@@H](OP(O)(=S)OC[C@H]3O[C@@H](n4ccc(=O)[nH]c4=O)[C@H](O)[C@@H]3OP(O)(=S)OC[C@H]3O[C@@H](n4cnc5c(=O)[nH]c(N)nc54)[C@H](O)[C@@H]3OP(O)(=S)OC[C@H]3O[C@@H](n4ccc(N)nc4=O)[C@H](O)[C@@H]3OP(O)(=S)OC[C@H]3O[C@@H](n4ccc(=O)[nH]c4=O)[C@H](O)[C@@H]3OP(O)(=S)OC[C@H]3O[C@@H](n4ccc(=O)[nH]c4=O)[C@H](O)[C@@H]3OP(O)(=S)OC[C@H]3O[C@@H](n4cnc5c(=O)[nH]c(N)nc54)[C@H](O)[C@@H]3OP(O)(=S)OC[C@H]3O[C@@H](n4ccc(=O)[nH]c4=O)[C@H](O)[C@@H]3OP(O)(=S)OC[C@H]3O[C@@H](n4cnc5c(=O)[nH]c(N)nc54)[C@H](O)[C@@H]3OP(O)(=S)OCC(O)COP(O)(=S)O[C@H]3[C@@H](O)[C@H](n4cnc5c(=O)[nH]c(N)nc54)O[C@@H]3COP(O)(=S)O[C@H]3[C@@H](O)[C@H](n4ccc(=O)[nH]c4=O)O[C@@H]3COP(O)(=S)O[C@H]3[C@@H](O)[C@H](n4cnc5c(=O)[nH]c(N)nc54)O[C@@H]3COP(O)(=S)O[C@H]3[C@@H](O)[C@H](n4ccc(=O)[nH]c4=O)O[C@@H]3COP(O)(=S)O[C@H]3[C@@H](O)[C@H](n4ccc(=O)[nH]c4=O)O[C@@H]3COP(O)(=S)O[C@H]3[C@@H](O)[C@H](n4ccc(N)nc4=O)O[C@@H]3COP(O)(=S)O[C@H]3[C@@H](O)[C@H](n4cnc5c(=O)[nH]c(N)nc54)O[C@@H]3COP(O)(=S)O[C@H]3[C@@H](O)[C@H](n4ccc(=O)[nH]c4=O)O[C@@H]3COP(O)(=S)O[C@H]3[C@@H](O)[C@H](n4ccc(N)nc4=O)O[C@@H]3COP(O)(=S)O[C@H]3[C@@H](O)[C@H](n4cnc5c(=O)[nH]c(N)nc54)O[C@@H]3COP(O)(=S)O[C@H]3[C@@H](O)[C@H](n4ccc(=O)[nH]c4=O)O[C@@H]3CO)[C@H]2O)c(=O)n1 (stereo partly drawn)	Dose-dependent effect	Dose-dependent effect	Dose-dependent effect	–	–	–	–	–	–	–	74%	Active	inactive	Dose-dependent effect	Dose-dependent effect	Dose-dependent effect	inactive	inactive	inactive
